The text below walks through data of patent publication US20040106632A1, “Salt of thiazolidinedione and its polymorphs as antidiabetic agents and method for obtaining them” (priority 2001, published 2004).

Each structure is given as a SMILES string.

Series [1] is described as follows: stability (solid and aqueous solution). In kind it is physicochemical.
The nature of the next series: aqueous solubility. Format: physicochemical.
The nature of series [2]: hygroscopicity / solvate formation on purification. In kind it is physicochemical.
The next series in a line: oral absorption profile. In kind it is in vivo. Particulars: compared with the free base.

For `COc1cc(N(C)CCOc2ccc(CC3SC(=O)NC3=O)cc2)ncn1` (stereo not drawn) [Compound I, 5-(4-{2-[(6-methoxypyrimydin-4-yl)-methyl-amino]-ethoxyl}-benzyl)-thiazolidin-2,4-dione], the stability entry in series [1] is recorded as “problems of stability”. In “aqueous solubility” (aqueous), the “solubility (in words)” value is “problems of stability and solubility”.
In the case of `COc1cc(N(C)CCOc2ccc(CC3SC(=O)NC3=O)cc2)ncn1.[Na]` (stereo not drawn) [Sodium Salt, sodium salt of 5-(4-{2-[(6-methoxy-pyrimydin-4-yl)-methyl-amino]-ethoxy}-benzyl)-thiazolidin-2,4-dione], the stability entry in series [1] is recorded as “good stability”. Moreover, the “hygroscopicity or formation of solvates” value in series [2] is listed as “without problems of hygroscopicity or formation of solvates”. Moreover, in “oral absorption profile”, the oral absorption profile entry is reported as “better oral absorption profile than the free base”. Further, in the series “aqueous solubility” (water), the aqueous solubility entry was “higher than 1 mg/ml”.
